Test results reported in the NIST ThermoML archive (doi:10.1016/j.jct.2015.12.017).
“And” between values parts separate entries of the source, which are not always exact repeats. Equal values may be shown once. ± gives the expanded uncertainty stated by the source.

Test: molar heat capacity at constant pressure
Details: 101.33 kPa, Small sample (50 mg) DSC

## O=P([O-])([O-])[O-].[Co+2].[Cs+] [cesium cobalt(II) phosphate]
451.9 K, Crystal 3
  molar heat capacity at constant pressure: 167.95 ± 5 J/K/mol
454.4 K, Crystal 3
  molar heat capacity at constant pressure: 167.95 ± 5 J/K/mol
456.9 K, Crystal 3
  molar heat capacity at constant pressure: 168.78 ± 5 J/K/mol
459.4 K, Crystal 3
  molar heat capacity at constant pressure: 169.62 ± 5 J/K/mol
460 K, Crystal 3
  molar heat capacity at constant pressure: 169.45 ± 4.9 J/K/mol
461.9 K, Crystal 3
  molar heat capacity at constant pressure: 170.45 ± 5 J/K/mol
464.4 K, Crystal 3
  molar heat capacity at constant pressure: 170.45 ± 5 J/K/mol
466.9 K, Crystal 3
  molar heat capacity at constant pressure: 171.28 ± 5 J/K/mol
469.4 K, Crystal 3
  molar heat capacity at constant pressure: 172.11 ± 5 J/K/mol
470 K, Crystal 3
  molar heat capacity at constant pressure: 172.44 ± 5 J/K/mol
471.9 K, Crystal 3
  molar heat capacity at constant pressure: 172.94 ± 5 J/K/mol
474.4 K, Crystal 3
  molar heat capacity at constant pressure: 173.77 ± 5 J/K/mol
476.9 K, Crystal 3
  molar heat capacity at constant pressure: 174.6 ± 5 J/K/mol
479.4 K, Crystal 3
  molar heat capacity at constant pressure: 176.27 ± 5 J/K/mol
480 K, Crystal 3
  molar heat capacity at constant pressure: 175.02 ± 5 J/K/mol
481.9 K, Crystal 3
  molar heat capacity at constant pressure: 182.92 ± 5.8 J/K/mol
484.4 K, Crystal 3
  molar heat capacity at constant pressure: 205.37 ± 7.5 J/K/mol
486.9 K, Crystal 2
  molar heat capacity at constant pressure: 241.12 ± 9.1 J/K/mol and 177.1 ± 5.1 J/K/mol
486.9 K, Crystal 3
  molar heat capacity at constant pressure: 177.1 ± 5.1 J/K/mol and 241.12 ± 9.1 J/K/mol
489.8 K, Crystal 2
  molar heat capacity at constant pressure: 196.22 ± 7.5 J/K/mol
490 K, Crystal 2
  molar heat capacity at constant pressure: 176.68 ± 5.1 J/K/mol
491.9 K, Crystal 2
  molar heat capacity at constant pressure: 182.09 ± 5.8 J/K/mol
494.4 K, Crystal 2
  molar heat capacity at constant pressure: 177.93 ± 5 J/K/mol
496.9 K, Crystal 2
  molar heat capacity at constant pressure: 177.1 ± 5 J/K/mol
499.4 K, Crystal 2
  molar heat capacity at constant pressure: 177.93 ± 5 J/K/mol
500 K, Crystal 2
  molar heat capacity at constant pressure: 177.51 ± 5.1 J/K/mol
501.9 K, Crystal 2
  molar heat capacity at constant pressure: 178.76 ± 5 J/K/mol
504.4 K, Crystal 2
  molar heat capacity at constant pressure: 181.26 ± 5 J/K/mol
506.9 K, Crystal 2
  molar heat capacity at constant pressure: 185.41 ± 5.8 J/K/mol
509.4 K, Crystal 2
  molar heat capacity at constant pressure: 192.06 ± 5.8 J/K/mol
510 K, Crystal 2
  molar heat capacity at constant pressure: 177.51 ± 5.1 J/K/mol
511.6 K, Crystal 2
  molar heat capacity at constant pressure: 215.34 ± 8.3 J/K/mol
514.4 K, Crystal 1
  molar heat capacity at constant pressure: 253.59 ± 11 J/K/mol and 177.02 ± 5.1 J/K/mol
514.4 K, Crystal 2
  molar heat capacity at constant pressure: 253.59 ± 9.1 J/K/mol and 177.76 ± 5.1 J/K/mol
517.3 K, Crystal 1
  molar heat capacity at constant pressure: 198.72 ± 8.3 J/K/mol
518.6 K, Crystal 1
  molar heat capacity at constant pressure: 188.74 ± 5.8 J/K/mol
520 K, Crystal 1
  molar heat capacity at constant pressure: 177.02 ± 5.1 J/K/mol
520.2 K, Crystal 1
  molar heat capacity at constant pressure: 184.58 ± 5 J/K/mol
523.1 K, Crystal 1
  molar heat capacity at constant pressure: 181.26 ± 5 J/K/mol
526.9 K, Crystal 1
  molar heat capacity at constant pressure: 178.76 ± 5 J/K/mol
529.4 K, Crystal 1
  molar heat capacity at constant pressure: 177.93 ± 5 J/K/mol
530 K, Crystal 1
  molar heat capacity at constant pressure: 177.02 ± 5.1 J/K/mol
531.9 K, Crystal 1
  molar heat capacity at constant pressure: 177.1 ± 5 J/K/mol
534.4 K, Crystal 1
  molar heat capacity at constant pressure: 177.1 ± 5 J/K/mol
536.9 K, Crystal 1
  molar heat capacity at constant pressure: 177.1 ± 5 J/K/mol
539.4 K, Crystal 1
  molar heat capacity at constant pressure: 177.1 ± 5 J/K/mol
540 K, Crystal 1
  molar heat capacity at constant pressure: 177.02 ± 5.1 J/K/mol
541.9 K, Crystal 1
  molar heat capacity at constant pressure: 177.1 ± 5 J/K/mol
544.4 K, Crystal 1
  molar heat capacity at constant pressure: 177.1 ± 5 J/K/mol
546.9 K, Crystal 1
  molar heat capacity at constant pressure: 177.1 ± 5 J/K/mol
549.4 K, Crystal 1
  molar heat capacity at constant pressure: 177.1 ± 5 J/K/mol
550 K, Crystal 1
  molar heat capacity at constant pressure: 177.02 ± 5.1 J/K/mol
551.9 K, Crystal 1
  molar heat capacity at constant pressure: 177.1 ± 5 J/K/mol
554.4 K, Crystal 1
  molar heat capacity at constant pressure: 177.1 ± 5 J/K/mol
556.9 K, Crystal 1
  molar heat capacity at constant pressure: 177.1 ± 5 J/K/mol
559.4 K, Crystal 1
  molar heat capacity at constant pressure: 177.1 ± 5 J/K/mol
560 K, Crystal 1
  molar heat capacity at constant pressure: 177.02 ± 5.1 J/K/mol
561.9 K, Crystal 1
  molar heat capacity at constant pressure: 177.1 ± 5 J/K/mol
564.4 K, Crystal 1
  molar heat capacity at constant pressure: 177.1 ± 5 J/K/mol
566.9 K, Crystal 1
  molar heat capacity at constant pressure: 177.1 ± 5 J/K/mol
569.4 K, Crystal 1
  molar heat capacity at constant pressure: 177.1 ± 5 J/K/mol
570 K, Crystal 1
  molar heat capacity at constant pressure: 177.02 ± 5.1 J/K/mol
571.9 K, Crystal 1
  molar heat capacity at constant pressure: 177.1 ± 5 J/K/mol
574.4 K, Crystal 1
  molar heat capacity at constant pressure: 177.1 ± 5 J/K/mol
576.9 K, Crystal 1
  molar heat capacity at constant pressure: 177.1 ± 5 J/K/mol
579.4 K, Crystal 1
  molar heat capacity at constant pressure: 177.1 ± 5 J/K/mol
580 K, Crystal 1
  molar heat capacity at constant pressure: 177.02 ± 5.1 J/K/mol
581.9 K, Crystal 1
  molar heat capacity at constant pressure: 177.1 ± 5 J/K/mol
584.4 K, Crystal 1
  molar heat capacity at constant pressure: 177.1 ± 5 J/K/mol
586.9 K, Crystal 1
  molar heat capacity at constant pressure: 177.1 ± 5 J/K/mol
589.4 K, Crystal 1
  molar heat capacity at constant pressure: 177.1 ± 5 J/K/mol
590 K, Crystal 1
  molar heat capacity at constant pressure: 177.02 ± 5.1 J/K/mol
591.9 K, Crystal 1
  molar heat capacity at constant pressure: 177.1 ± 5 J/K/mol
594.4 K, Crystal 1
  molar heat capacity at constant pressure: 177.1 ± 5 J/K/mol
596.9 K, Crystal 1
  molar heat capacity at constant pressure: 177.1 ± 5 J/K/mol
599.4 K, Crystal 1
  molar heat capacity at constant pressure: 177.1 ± 5 J/K/mol
600 K, Crystal 1
  molar heat capacity at constant pressure: 177.02 ± 5.1 J/K/mol
601.9 K, Crystal 1
  molar heat capacity at constant pressure: 177.1 ± 5 J/K/mol
604.4 K, Crystal 1
  molar heat capacity at constant pressure: 177.1 ± 5 J/K/mol
606.9 K, Crystal 1
  molar heat capacity at constant pressure: 177.1 ± 5 J/K/mol
609.4 K, Crystal 1
  molar heat capacity at constant pressure: 177.1 ± 5 J/K/mol
610 K, Crystal 1
  molar heat capacity at constant pressure: 177.02 ± 5.1 J/K/mol
611.9 K, Crystal 1
  molar heat capacity at constant pressure: 177.93 ± 5 J/K/mol
614.4 K, Crystal 1
  molar heat capacity at constant pressure: 177.93 ± 5 J/K/mol
616.9 K, Crystal 1
  molar heat capacity at constant pressure: 177.93 ± 5 J/K/mol
619.4 K, Crystal 1
  molar heat capacity at constant pressure: 177.93 ± 5 J/K/mol
620 K, Crystal 1
  molar heat capacity at constant pressure: 177.02 ± 5.1 J/K/mol
621.9 K, Crystal 1
  molar heat capacity at constant pressure: 177.93 ± 5 J/K/mol
624.4 K, Crystal 1
  molar heat capacity at constant pressure: 177.93 ± 5 J/K/mol
626.9 K, Crystal 1
  molar heat capacity at constant pressure: 177.93 ± 5 J/K/mol
629.4 K, Crystal 1
  molar heat capacity at constant pressure: 177.93 ± 5 J/K/mol
630 K, Crystal 1
  molar heat capacity at constant pressure: 177.02 ± 5.1 J/K/mol
631.9 K, Crystal 1
  molar heat capacity at constant pressure: 177.93 ± 5 J/K/mol
634.4 K, Crystal 1
  molar heat capacity at constant pressure: 177.93 ± 5 J/K/mol
636.9 K, Crystal 1
  molar heat capacity at constant pressure: 177.93 ± 5 J/K/mol
639.4 K, Crystal 1
  molar heat capacity at constant pressure: 177.93 ± 5 J/K/mol
640 K, Crystal 1
  molar heat capacity at constant pressure: 177.02 ± 5.1 J/K/mol
641.9 K, Crystal 1
  molar heat capacity at constant pressure: 177.93 ± 5 J/K/mol
644.4 K, Crystal 1
  molar heat capacity at constant pressure: 177.93 ± 5 J/K/mol
646.9 K, Crystal 1
  molar heat capacity at constant pressure: 177.93 ± 5 J/K/mol
649.4 K, Crystal 1
  molar heat capacity at constant pressure: 177.93 ± 5 J/K/mol
650 K, Crystal 1
  molar heat capacity at constant pressure: 177.02 ± 5.1 J/K/mol
